# Laboratory results as given in patent US6355799B1, “Substituted benzene compounds, process for their preparation, and herbicidal and defoliant compositions containing them” (ISK Americas Incorporated, priority 1997, dated 2002).
# What was measured:
# Format in all cases: in vivo
# [1] = test system: sicklepod (Cassia obtusifolia, CASOB); assay: Post-emerge test, greenhouse herbicide activity screening; settings: rating scale 0-100 (0 no damage, 100 complete death), 14 days after application
# Procedure, shortened: (§1)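 Rating: 0–100 visual injury, 14 DAA. Application: acetone, 187 l/ha, 15–1000 g ai/ha, flat-fan track sprayer with nozzle 40–45 cm above soil or canopy. Post-emerge runs used 0.25% v/v surfactant on 2–3 leaf plants.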
# [2] = test system: barnyardgrass (Echinochloa crus-galli, ECHCG); assay: as above; settings: rating scale 0-100 (0 no damage, 100 complete death), 14 days after application
# Procedure, shortened: as §1
# [3] = test system: green foxtail (Setaria viridis, SETVI); assay: as above; settings: rating scale 0-100 (0 no damage, 100 complete death), 14 days after application
# Procedure, shortened: as §1
# [4] = test system: velvetleaf (Abutilon theophrasti, ABUTH); assay: as above; settings: rating scale 0-100 (0 no damage, 100 complete death), 14 days after application
# Procedure, shortened: as §1
# [5] = test system: ivyleaf morningglory (Ipomoea hederacea, IPOHE); assay: as above; settings: rating scale 0-100 (0 no damage, 100 complete death), 14 days after application
# Procedure, shortened: as §1
# [6] = test system: large crabgrass (Digitaria sanguinalis, DIGSA); assay: as above; settings: rating scale 0-100 (0 no damage, 100 complete death), 14 days after application
# Procedure, shortened: as §1
# [7] = test system: lambsquarters (Chenopodium album, CHEAL); assay: as above; settings: rating scale 0-100 (0 no damage, 100 complete death), 14 days after application
# Procedure, shortened: as §1
# [8] = test system: johnsongrass (Sorghum halepense, SORHA); assay: as above; settings: rating scale 0-100 (0 no damage, 100 complete death), 14 days after application
# Procedure, shortened: as §1
# [9] = test system: redroot pigweed (Amaranthus retroflexus, AMARE); assay: as above; settings: rating scale 0-100 (0 no damage, 100 complete death), 14 days after application
# Procedure, shortened: as §1
# [10] = test system: redroot pigweed (Amaranthus retroflexus, AMARE); assay: Pre-emerge test, greenhouse herbicide activity screening; settings: rating scale 0-100, 14 days after application
# Procedure, shortened: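 Visual ratings on a 0-100 scale (0 no damage, 100 all plants dead) were taken at 14 days after treatment. Rates of 15-1000 g ai/ha in acetone, 187 l/ha, were sprayed onto soil one day after planting (pre-emerge) or onto 2-3 leaf plants with 0.25% v/v surfactant (post-emerge).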
# [11] = test system: sicklepod (Cassia obtusifolia, CASOB); assay: as above; settings: rating scale 0-100, 14 days after application
# Procedure, shortened: (§2)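 Compounds in acetone were track-sprayed at 187 l/ha, 15–1000 g ai/ha, onto sandy loam pots. Pre-emerge seeds were sown one day before spraying, with surface watering afterwards. Post-emerge plants were at the 2–3 leaf stage and sprayed with 0.25% v/v non-ionic surfactant. Injury was rated 0–100 at 14 days.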
# [12] = test system: barnyardgrass (Echinochloa crus-galli, ECHCG); assay: as above; settings: rating scale 0-100, 14 days after application
# Procedure, shortened: as §2
# [13] = test system: green foxtail (Setaria viridis, SETVI); assay: as above; settings: rating scale 0-100, 14 days after application
# Procedure, shortened: as §2
# [14] = test system: velvetleaf (Abutilon theophrasti, ABUTH); assay: as above; settings: rating scale 0-100, 14 days after application
# Procedure, shortened: as §2
# [15] = test system: ivyleaf morningglory (Ipomoea hederacea, IPOHE); assay: as above; settings: rating scale 0-100, 14 days after application
# Procedure, shortened: as §2
# [16] = test system: large crabgrass (Digitaria sanguinalis, DIGSA); assay: as above; settings: rating scale 0-100, 14 days after application
# Procedure, shortened: as §2
# [17] = test system: lambsquarters (Chenopodium album, CHEAL); assay: as above; settings: rating scale 0-100, 14 days after application
# Procedure, shortened: as §2
# [18] = test system: johnsongrass (Sorghum halepense, SORHA); assay: as above; settings: rating scale 0-100, 14 days after application
# Procedure, shortened: as §2
# [19] = test system: upland rice (Oryza sp., var. Tebonnet, RICE); assay: Pre-emerge test, crop safety; settings: rating scale 0-100, 14 days after application
# Procedure, shortened: as §2
# [20] = test system: field corn (Zea mays L., var. Dekalb 535, CORN); assay: Pre-emerge test, crop safety; settings: rating scale 0-100, 14 days after application
# Procedure, shortened: as §2
# [21] = test system: upland rice (Oryza sp., var. Tebonnet, RICE); assay: Post-emerge test, crop safety; settings: rating scale 0-100 (0 no damage, 100 complete death), 14 days after application
# Procedure, shortened: as §2
# [22] = test system: field corn (Zea mays L., var. Dekalb 535, CORN); assay: Post-emerge test, crop safety; settings: rating scale 0-100 (0 no damage, 100 complete death), 14 days after application
# Procedure, shortened: as §2
smiles,measurement,setting,value
"COc1c(Cl)cc(F)c(-n2c(=O)cc(C(F)(F)F)n(C)c2=O)c1CC(Cl)C(=O)OCC(Br)CBr (single isomer, unassigned) [14-31]","Post-emerge Herbicidal Activity, phytotoxicity rating CASOB",[1]; Rate 63 g ai/ha,50
same,"Post-emerge Herbicidal Activity, phytotoxicity rating CASOB",[1]; Rate 250 g ai/ha,50
same,"Post-emerge Herbicidal Activity, phytotoxicity rating ECHCG",[2]; Rate 63 g ai/ha,100
same,"Post-emerge Herbicidal Activity, phytotoxicity rating ECHCG",[2]; Rate 250 g ai/ha,100
same,"Post-emerge Herbicidal Activity, phytotoxicity rating SETVI",[3]; Rate 63 g ai/ha,0
same,"Post-emerge Herbicidal Activity, phytotoxicity rating SETVI",[3]; Rate 250 g ai/ha,50
same,"Post-emerge Herbicidal Activity, phytotoxicity rating ABUTH",[4]; Rate 63 g ai/ha,90
same,"Post-emerge Herbicidal Activity, phytotoxicity rating ABUTH",[4]; Rate 250 g ai/ha,100
same,"Post-emerge Herbicidal Activity, phytotoxicity rating IPOHE",[5]; Rate 63 g ai/ha,10
same,"Post-emerge Herbicidal Activity, phytotoxicity rating IPOHE",[5]; Rate 250 g ai/ha,70
same,"Post-emerge Herbicidal Activity, phytotoxicity rating DIGSA",[6]; Rate 63 g ai/ha,95
same,"Post-emerge Herbicidal Activity, phytotoxicity rating DIGSA",[6]; Rate 250 g ai/ha,100
same,"Post-emerge Herbicidal Activity, phytotoxicity rating CHEAL",[7]; Rate 63 g ai/ha,70
same,"Post-emerge Herbicidal Activity, phytotoxicity rating CHEAL",[7]; Rate 250 g ai/ha,90
same,"Post-emerge Herbicidal Activity, phytotoxicity rating SORHA",[8]; Rate 63 g ai/ha,0
same,"Post-emerge Herbicidal Activity, phytotoxicity rating SORHA",[8]; Rate 250 g ai/ha,20
same,"Post-emerge Herbicidal Activity, phytotoxicity rating AMARE",[9]; Rate 63 g ai/ha,90
same,"Post-emerge Herbicidal Activity, phytotoxicity rating AMARE",[9]; Rate 250 g ai/ha,100
same,"Pre-emerge herbicidal activity, phytotoxicity rating AMARE",[10]; 63 g ai/ha,70
same,"Pre-emerge herbicidal activity, phytotoxicity rating AMARE",[10]; 250 g ai/ha,100
same,"Pre-emerge herbicidal activity, phytotoxicity rating CASOB",[11]; 63 g ai/ha,0
same,"Pre-emerge herbicidal activity, phytotoxicity rating CASOB",[11]; 250 g ai/ha,0
same,"Pre-emerge herbicidal activity, phytotoxicity rating ECHCG",[12]; 63 g ai/ha,0
same,"Pre-emerge herbicidal activity, phytotoxicity rating ECHCG",[12]; 250 g ai/ha,0
same,"Pre-emerge herbicidal activity, phytotoxicity rating SETVI",[13]; 63 g ai/ha,0
same,"Pre-emerge herbicidal activity, phytotoxicity rating SETVI",[13]; 250 g ai/ha,0
same,"Pre-emerge herbicidal activity, phytotoxicity rating ABUTH",[14]; 63 g ai/ha,0
same,"Pre-emerge herbicidal activity, phytotoxicity rating ABUTH",[14]; 250 g ai/ha,70
same,"Pre-emerge herbicidal activity, phytotoxicity rating IPOHE",[15]; 63 g ai/ha,0
same,"Pre-emerge herbicidal activity, phytotoxicity rating IPOHE",[15]; 250 g ai/ha,50
same,"Pre-emerge herbicidal activity, phytotoxicity rating DIGSA",[16]; 63 g ai/ha,0
same,"Pre-emerge herbicidal activity, phytotoxicity rating DIGSA",[16]; 250 g ai/ha,90
same,"Pre-emerge herbicidal activity, phytotoxicity rating CHEAL",[17]; 63 g ai/ha,40
same,"Pre-emerge herbicidal activity, phytotoxicity rating CHEAL",[17]; 250 g ai/ha,50
same,"Pre-emerge herbicidal activity, phytotoxicity rating SORHA",[18]; 63 g ai/ha,0
same,"Pre-emerge herbicidal activity, phytotoxicity rating SORHA",[18]; 250 g ai/ha,0
same,"Pre-emerge phytotoxicity rating, crop damage RICE",[19]; 63 g ai/ha,0
same,"Pre-emerge phytotoxicity rating, crop damage RICE",[19]; 250 g ai/ha,0
same,"Pre-emerge phytotoxicity rating, crop damage CORN",[20]; 63 g ai/ha,0
same,"Pre-emerge phytotoxicity rating, crop damage CORN",[20]; 250 g ai/ha,30
same,Post-emerge phytotoxicity rating RICE (crop damage),[21]; Rate 63 g ai/ha,0
same,Post-emerge phytotoxicity rating RICE (crop damage),[21]; Rate 250 g ai/ha,0
same,Post-emerge phytotoxicity rating CORN (crop damage),[22]; Rate 63 g ai/ha,10
same,Post-emerge phytotoxicity rating CORN (crop damage),[22]; Rate 250 g ai/ha,50
